Test results reported in ChEMBL document CHEMBL1201862, “PubChem BioAssay data set” (2004).
The source made the active and inactive calls.

Columns and labels:
Leucine aminopeptidase = molecular target: T1, Leucine aminopeptidase (Plasmodium falciparum 3D7, UniProt Q8IL11); test: P. falciparum M17LAP inhibitors, primary screen, biochemical, fluorogenic H-Leu-NHMec substrate, 1536-well (AID 1619); assay type: functional
T1 sequence (Q8IL11 whole entry): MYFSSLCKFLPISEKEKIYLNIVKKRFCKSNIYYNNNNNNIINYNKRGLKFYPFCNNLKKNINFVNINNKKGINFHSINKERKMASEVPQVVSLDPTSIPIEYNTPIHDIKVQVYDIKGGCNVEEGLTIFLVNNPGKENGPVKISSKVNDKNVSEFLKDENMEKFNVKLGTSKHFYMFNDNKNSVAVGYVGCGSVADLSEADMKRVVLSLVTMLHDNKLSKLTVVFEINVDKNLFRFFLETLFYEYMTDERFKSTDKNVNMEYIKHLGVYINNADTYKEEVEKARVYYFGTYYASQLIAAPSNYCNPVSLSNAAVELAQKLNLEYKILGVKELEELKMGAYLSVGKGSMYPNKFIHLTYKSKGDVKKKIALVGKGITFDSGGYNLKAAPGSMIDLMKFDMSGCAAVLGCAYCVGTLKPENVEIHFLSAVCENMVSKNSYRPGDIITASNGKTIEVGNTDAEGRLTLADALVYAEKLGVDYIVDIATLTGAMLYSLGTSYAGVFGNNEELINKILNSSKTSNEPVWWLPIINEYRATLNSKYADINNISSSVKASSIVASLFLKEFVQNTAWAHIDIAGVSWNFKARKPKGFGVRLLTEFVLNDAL

[1] = Luminescence Cell-Based Dose Confirmation HTS to Identify Activators of 5'UTR Stem-Loop Driven Alpha-Synuclein mRNA Translation in H4 Neuroglioblastoma Cells. [Related pubchem assays: 1829 (Project Summary), 1814 (Primary HTS)]; assay type: functional
[2] = Luminescence Cell-Based Dose Response HTS to Identify Activators of Luciferase Translation or Activity in H4 […] Cells. [Related pubchem assays: 1829 (Project Summary), 1814 (Primary HTS)]; assay type: functional
H4 = test: Luminescence Cell-Based Dose Response HTS to Identify Activators of 5'UTR Stem-Loop Driven Prion Protein mRNA Translation in H4 Neuroglioblastoma Cells. [Related pubchem assays: 1829 (Project Summary), 1814 (Primary HTS)]; assay type: functional; conditions: Homo sapiens
[3] = molecular target: Luciferin 4-monooxygenase (Photinus pyralis, UniProt P08659); test: firefly luciferase enzyme inhibitors, dose response, biochemical, luminescence (AID 1891)
Chain of Luciferin 4-monooxygenase (P08659 whole entry): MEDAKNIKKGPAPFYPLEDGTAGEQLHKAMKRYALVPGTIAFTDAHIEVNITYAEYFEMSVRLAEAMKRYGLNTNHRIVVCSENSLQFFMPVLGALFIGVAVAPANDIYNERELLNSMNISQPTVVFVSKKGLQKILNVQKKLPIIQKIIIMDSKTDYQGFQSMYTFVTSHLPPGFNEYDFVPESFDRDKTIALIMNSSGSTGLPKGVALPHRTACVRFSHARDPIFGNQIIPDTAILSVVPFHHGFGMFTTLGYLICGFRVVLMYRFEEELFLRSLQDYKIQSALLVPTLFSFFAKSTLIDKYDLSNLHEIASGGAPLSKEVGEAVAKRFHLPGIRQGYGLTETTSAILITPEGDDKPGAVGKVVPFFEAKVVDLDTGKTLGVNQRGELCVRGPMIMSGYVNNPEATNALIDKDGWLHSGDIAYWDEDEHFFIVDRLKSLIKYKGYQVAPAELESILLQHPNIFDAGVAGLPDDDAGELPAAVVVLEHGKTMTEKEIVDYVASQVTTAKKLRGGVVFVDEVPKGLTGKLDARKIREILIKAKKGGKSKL

[4] = Luminescence Cell-Based Dose Confirmation HTS to Identify Inhibitors of Platelet Dense Granule Release. [Related pubchem assays: 1663 (Primary HTS), 1678 (Summary of Project)]; assay type: functional
cells [5] = assay type: functional, cell-based
cells [6] = assay type: functional, cell-based; remark: listed apart in the source
Cytochrome P450 2C19 = Cytochrome P450 2C19 (Homo sapiens, UniProt P33261); test: Cytochrome panel assay with activity outcomes. Panel member name: p450-cyp2c19 Compounds with AC50 equal or less than 10 uM are considered active; assay type: functional
Chain of Cytochrome P450 2C19 (P33261 whole entry): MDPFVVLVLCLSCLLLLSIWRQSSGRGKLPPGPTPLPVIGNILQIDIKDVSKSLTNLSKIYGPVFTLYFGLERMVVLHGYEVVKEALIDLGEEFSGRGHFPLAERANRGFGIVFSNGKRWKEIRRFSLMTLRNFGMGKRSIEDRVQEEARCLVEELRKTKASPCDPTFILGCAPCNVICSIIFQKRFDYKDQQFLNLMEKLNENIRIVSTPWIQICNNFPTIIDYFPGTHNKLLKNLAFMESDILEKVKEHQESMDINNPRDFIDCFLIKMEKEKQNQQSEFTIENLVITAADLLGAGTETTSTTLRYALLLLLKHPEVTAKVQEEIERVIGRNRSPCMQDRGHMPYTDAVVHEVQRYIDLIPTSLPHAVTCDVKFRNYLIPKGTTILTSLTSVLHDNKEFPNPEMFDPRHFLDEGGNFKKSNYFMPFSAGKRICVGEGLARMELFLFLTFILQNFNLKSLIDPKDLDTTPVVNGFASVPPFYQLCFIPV

Cytochrome P450 3A4 = Cytochrome P450 3A4 (Homo sapiens, UniProt P08684);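 note: CYP3A4 tested as one member of a cytochrome P450 panel screen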
Chain of Cytochrome P450 3A4 (P08684 whole entry): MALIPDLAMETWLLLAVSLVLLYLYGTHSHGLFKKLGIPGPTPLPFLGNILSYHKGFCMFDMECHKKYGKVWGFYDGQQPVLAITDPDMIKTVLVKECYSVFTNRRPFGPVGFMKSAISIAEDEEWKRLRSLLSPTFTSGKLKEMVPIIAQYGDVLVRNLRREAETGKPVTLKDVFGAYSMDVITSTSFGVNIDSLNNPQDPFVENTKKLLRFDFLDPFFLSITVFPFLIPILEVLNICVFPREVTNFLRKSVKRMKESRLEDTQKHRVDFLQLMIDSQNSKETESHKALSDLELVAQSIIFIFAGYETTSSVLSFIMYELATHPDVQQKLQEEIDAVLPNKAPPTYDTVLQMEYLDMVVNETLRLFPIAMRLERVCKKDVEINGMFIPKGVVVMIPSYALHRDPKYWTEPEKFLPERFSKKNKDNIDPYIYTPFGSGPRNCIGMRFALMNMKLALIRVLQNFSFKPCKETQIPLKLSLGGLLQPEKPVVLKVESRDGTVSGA

[7] = Shn3 3'UTR reporter inhibitors, dose response, cell-based, Clone20 osteoblasts, firefly luciferase, cherry-picked (AID 624132); assay type: functional;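 note: firefly luciferase luminescence from reporter carrying the Shn3 3'UTR in osteoblasts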
[8] = control 3'UTR Renilla luciferase suppression, dose response, counter-screen for Shn3 inhibitor project, cell-based, Clone20-Shn3RL, cherry-picked (AID 624133); assay type: functional
Paired box protein Pax-8 = Paired box protein Pax-8 (Homo sapiens, UniProt Q06710); test: inhibitors of PAX8-driven TPO luciferase reporter, dose response, RMG-I cells, cherry-pick (AID 687027); assay type: functional, cell-based;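 note: luciferase reporter driven by Pax8 target thyroperoxidase promoter measured by SteadyGlo luminescence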
Chain of Paired box protein Pax-8 (Q06710 whole entry): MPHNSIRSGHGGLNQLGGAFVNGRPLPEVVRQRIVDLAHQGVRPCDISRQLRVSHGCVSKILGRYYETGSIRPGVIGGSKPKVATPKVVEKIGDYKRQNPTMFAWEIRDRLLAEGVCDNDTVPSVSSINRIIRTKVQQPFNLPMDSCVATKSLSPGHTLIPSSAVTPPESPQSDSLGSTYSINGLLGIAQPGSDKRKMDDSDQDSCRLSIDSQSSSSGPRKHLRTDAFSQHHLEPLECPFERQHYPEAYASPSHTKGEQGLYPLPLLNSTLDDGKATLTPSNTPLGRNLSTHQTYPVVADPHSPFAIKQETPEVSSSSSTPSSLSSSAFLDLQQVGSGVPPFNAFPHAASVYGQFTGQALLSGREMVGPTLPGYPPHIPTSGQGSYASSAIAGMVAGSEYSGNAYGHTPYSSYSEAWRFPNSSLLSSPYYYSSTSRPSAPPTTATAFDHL

[9] = Luminescence Cell-Based Dose Retest to Confirm Inhibitors of Cancer Stem Cells. [Related pubchem assays (depositor defined):AID2717, AID2721]; assay type: functional; conditions: Homo sapiens
INS1 = test: beta cell apoptosis inhibitors, cytokine rescue, dose response, luminescence, retest (AID 449756); assay type: functional, cell-based; conditions: Rattus norvegicus;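 note: cell death triggered by IL-1 beta plus TNF-alpha plus IFN-gamma mixture; protective hits raise ATP signal compared with cytokine alone wells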

SMILES: Cc1cc(NS(=O)(=O)c2ccc(NC(=O)Nc3ccc4c(c3)OCO4)cc2)no1
- IC50 (Leucine aminopeptidase): 13.3 µM (active)

SMILES: OC(COc1ccc2ccccc2c1Cl)CN1CCOCC1 (centres undefined)
- EC50 [1]: 4.79 µM (active)
- EC50 [2]: 6.79 µM (active)
- EC50 (H4): 9.81 µM (active)

SMILES: Cn1ccnc1Sc1nc2ccccc2nc1NS(=O)(=O)c1ccccc1
- IC50 (Leucine aminopeptidase): 29.2 µM (active)

SMILES: COc1ccc(NC(=O)CNC(=O)c2ccc([N+](=O)[O-])cc2)cc1
- EC50 [3]: > 112 µM (not active)
- EC50 [4]: 15.4 µM (active)

SMILES: Cc1ccc(NC(=O)c2cc(S(=O)(=O)N3CCOCC3)cn2C)cc1F
- EC50 [3]: > 112 µM (not active)
- EC50 [4]: > 112 µM (not active)

SMILES: CCC(Sc1nc(C)cc(O)n1)C(=O)Nc1sc2c(c1C#N)CCCC2 (centres undefined)
- EC50 (cells [5]): > 350 µM (not active)
- EC50 (cells [6]): > 350 µM (not active)

SMILES: CCOC(=O)N1CCN(C(=O)CSCc2ccc(Cl)cc2)CC1
- AC50 (Cytochrome P450 2C19; read-out: AC50): 17.8 µM (inconclusive)

SMILES: CCCCC[C@H](CC(=O)NO)C(=O)N[C@@H](C(=O)N1CCC[C@H]1CO)C(C)C
- AC50 (Cytochrome P450 2C19): inconclusive
- AC50 (Cytochrome P450 3A4): 5.01 µM (inconclusive)

SMILES: CCOC(=O)c1sc(NC(=O)CSc2nnc[nH]2)c(C#N)c1C
- IC50 (Leucine aminopeptidase): 73 µM (active)

SMILES: COC(=O)C1=C(c2ccc3ccccc3c2)C[C@@H]2CC[C@H]1N2C(=O)NCC1CC1
- AC50 [7]: 6.86 µM (active)
- AC50 [8]: 30.6 µM (active)

SMILES: CCOc1ccc2c(C)c(Cl)c(=O)oc2c1
- EC50 (cells [5]): > 350 µM (not active)
- EC50 (cells [6]): > 350 µM (not active)

SMILES: Cc1ccc2c(c1)C(O)(CC(=O)/C=C/C=C/c1ccccc1)C(=O)N2 (centres undefined)
- EC50 [1]: 17 µM (active)
- EC50 [2]: 11.8 µM (active)
- EC50 (H4): > 120 µM (not active)

SMILES: C[C@@H]1CCCCO[C@@H](CN(C)C(=O)C2CCCCC2)[C@H](C)CN([C@@H](C)CO)C(=O)c2cc(NS(=O)(=O)c3ccc(Cl)cc3)ccc2O1
- AC50 (Paired box protein Pax-8): 9.05 µM (active)

SMILES: C[C@@H]1CN([C@@H](C)CO)C(=O)Cc2cc(NC(=O)Nc3ccc(C(F)(F)F)cc3)ccc2O[C@H]1CN(C)S(=O)(=O)c1ccc(F)cc1
- AC50 (Paired box protein Pax-8): 9.39 µM (active)

SMILES: CCN1C[C@]2(C)CC[C@H](OC)[C@@]34[C@@H]2[C@H](OC(C)=O)C2(OCO[C@@]25C[C@@H](OC)[C@H]2C[C@@]3(O)[C@H]5[C@@H]2OC)[C@H]14
- AC50 (Cytochrome P450 2C19): inconclusive
- AC50 (Cytochrome P450 3A4): 15.8 µM (inconclusive)

SMILES: Cc1cc(O)nc(N/N=C/c2ccccn2)n1
- EC50 (cells [5]): 33.1 µM (active)
- EC50 (cells [6]): 40.4 µM (active)
- AC50 [9]: 2.89 µM (active)
- AC50 (INS1): 1.37 µM (active)

SMILES: O=C(O)c1cc(N/N=C/c2ccc(OCc3ccccc3)cc2)ccc1Cl
- IC50 (Leucine aminopeptidase): 20 µM (active)

SMILES: CC1=NNC(=O)C1CC(=O)N/N=C(\C)c1ccco1 (centres undefined)
- IC50 (Leucine aminopeptidase): 12.3 µM (active)

SMILES: Cn1ccnc1 [1-METHYLIMIDAZOLE]
- AC50 (Cytochrome P450 2C19): inconclusive

SMILES: O=C(O)c1c2ccccc2cc2ccccc12 [ANTHRACENE-9-CARBOXYLIC ACID]
- AC50 (Cytochrome P450 2C19; read-out: AC50): 25.1 µM (inconclusive)
